# Test results published in US11399539B2, “Heterocyclic compound and harmful arthropod controlling agent containing same” (Sumitomo Chemical Company, Limited, priority 2016, dated 2022).
# System: cabbage aphids (Brevicoryne brassicae)
# Assay: Test Example 8 and Comparative Test: spray on cabbage seedling infested with cabbage aphids
# Format: in vivo
# Conditions: Comparative Test according to Test example 8
row,Compound,Controlling value at 500 ppm (%)
1,CCS(=O)(=O)c1cc(C(F)(F)F)cnc1-n1cnc(C(F)(F)F)cc1=O [C-33],77%
2,CCS(=O)(=O)c1cc(C(F)(F)F)cnc1-n1ccc(C(F)(F)F)cc1=O [A-48],93%
3,O=c1cc(C(F)(F)F)ccn1-c1ncc(C(F)(F)F)cc1Cl [Comparative compound 1],7%
4,O=c1cc(C(F)(F)F)ncn1-c1ncc(C(F)(F)F)cc1Cl [Comparative compound 2],14%
